Test results reported in article PMC6429263, “Evolution and Antibacterial Evaluation of 8-Hydroxy-cycloberberine Derivatives as a Novel Family of Antibacterial Agents Against MRSA” (Molecules, 2019).
Where “and” joins values, the source holds several entries; their conditions need not be identical. Equal values may be shown once. Where a name gives a salt, the structure may show the parent alone.

SMILES	melting point
COc1ccc2c(c[n+]3ccc4cc5c(c6c(Cc7ccc(OC(F)(F)F)cc7)cc2c3c46)OCO5)c1O (as salt: chloride) [13l, 1,2-Methylenedioxy-8-hydroxy-9-methoxy-13-p-trifluoromethoxybenzylcyclo berberine chloride]	185 to 187 °C
COc1ccc2c(c[n+]3ccc4cc5c(c6c(Cc7ccccc7[N+](=O)[O-])cc2c3c46)OCO5)c1O (as salt: chloride) [13p, 1,2-Methylenedioxy-8-hydroxy-9-methoxy-13-o-nitrobenzylcycloberberine chloride]	199 to 201 °C
COc1ccc2c(c[n+]3ccc4cc5c(c6c(Cc7ccc(Br)cc7)cc2c3c46)OCO5)c1O (as salt: chloride) [13f, 1,2-Methylenedioxy-8-hydroxy-9-methoxy-13-p-bromobenzylcycloberberine chloride]	207 to 209 °C
CCCc1cc2c3ccc(OC)c(O)c3c[n+]3ccc4cc5c(c1c4c23)OCO5 (as salt: chloride) [15b, 1,2-Methylenedioxy-8-hydroxy-9-methoxy-13-propylcycloberberine chloride]	165 to 167 °C
COc1ccc2c(c[n+]3ccc4cc5c(c6c(Cc7ccc(F)cc7)cc2c3c46)OCO5)c1O (as salt: chloride) [13b, 1,2-Methylenedioxy-8-hydroxy-9-methoxy-13-p-fluorobenzylcycloberberine chloride]	203 to 205 °C
COc1ccc2c(c[n+]3ccc4cc5c(c6c(Cc7cc(C)cc(C)c7)cc2c3c46)OCO5)c1O (as salt: chloride) [13j, 1,2-Methylenedioxy-8-hydroxy-9-methoxy-13-3′,5′-dimethylbenzylcycloberberine chloride]	218 to 220 °C
COc1ccc2c(c[n+]3ccc4cc5c(c6c(Cc7ccc(C)cc7)cc2c3c46)OCO5)c1O (as salt: chloride) [13i, 1,2-Methylenedioxy-8-hydroxy-9-methoxy-13-p-methylbenzylcycloberberine chloride]	229 to 231 °C
CCCCc1cc2c3ccc(OC)c(O)c3c[n+]3ccc4cc5c(c1c4c23)OCO5 (as salt: chloride) [15c, 1,2-Methylenedioxy-8-hydroxy-9-methoxy-13-butylcycloberberine chloride]	162 to 164 °C
COc1ccc2c(c[n+]3ccc4cc5c(c6c(Cc7ccc(C(C)(C)C)cc7)cc2c3c46)OCO5)c1O (as salt: chloride) [13k, 1,2-Methylenedioxy-8-hydroxy-9-methoxy-13-p-tert-butylmethylbenzylcyclo berberine chloride]	212 to 214 °C
COc1ccc2c(c[n+]3ccc4cc5c(c6c(Cc7ccc([N+](=O)[O-])cc7)cc2c3c46)OCO5)c1O (as salt: chloride) [13r, 1,2-Methylenedioxy-8-hydroxy-9-methoxy-13-p-nitrobenzylcycloberberine chloride]	186 to 188 °C
COc1ccc2c(c[n+]3ccc4cc5c(c6c(Cc7cccc(C#N)c7)cc2c3c46)OCO5)c1O (as salt: chloride) [13n, 1,2-Methylenedioxy-8-hydroxy-9-dimethoxy-13-m-cyanbenzylcycloberberine chloride]	189 to 191 °C
COc1ccc2c(c[n+]3ccc4cc5c(c6c(Cc7ccc(F)cc7F)cc2c3c46)OCO5)c1O (as salt: chloride) [13c, 1,2-Methylenedioxy-8-hydroxy-9-methoxy-13-2′,4′-difluorobenzylcycloberberine chloride]	218 to 220 °C
COC(=O)C(c1ccccc1)c1cc2c3ccc(OC)c(O)c3c[n+]3ccc4cc5c(c1c4c23)OCO5 (stereo not drawn) (as salt: chloride) [13t, 1,2-Methylenedioxy-8-hydroxy-9-methoxy-13-2′-methoxy-2′-oxo-1′-phenylethylcycloberberine chloride]	173 to 175 °C
COc1ccc2c(c[n+]3ccc4cc5c(c6c(Cc7c(F)cccc7F)cc2c3c46)OCO5)c1O (as salt: chloride) [13d, 1,2-Methylenedioxy-8-hydroxy-9-methoxy-13-2′,6′-difluorobenzylcycloberberine chloride]	214 to 216 °C
COc1ccc2c(c[n+]3c4c2ccc2c(OC)c(OC)cc(c24)CC3)c1O (as salt: chloride) [compound 6, 1,2-Dimethoxy-8-hydroxy-9-methoxycycloberberine Chloride]	176 to 178 °C and 180 to 182 °C

Next, values leading:

melting point	SMILES
186 to 188 °C	COc1ccc2c(c[n+]3ccc4cc5c(c6c(Cc7cccc([N+](=O)[O-])c7)cc2c3c46)OCO5)c1O (as salt: chloride) [13q, 1,2-Methylenedioxy-8-hydroxy-9-methoxy-13-m-nitrobenzylcycloberberine chloride]
191 to 193 °C	COc1ccc2c(c[n+]3c4c2ccc2c(O)c(O)cc(c24)CC3)c1O (as salt: chloride) [compound 10, 1,2,8-Trihydroxy-9-methoxycycloberberine Chloride]
203 to 205 °C	COc1ccc2c(c[n+]3ccc4cc5c(c6c(Cc7cccc(C)c7)cc2c3c46)OCO5)c1O (as salt: chloride) [13h, 1,2-Methylenedioxy-8-hydroxy-9-methoxy-13-m-methylbenzylcycloberberine chloride]
209 to 211 °C	COc1ccc2c(c[n+]3ccc4cc5c(c6c(Cc7ccccc7C#N)cc2c3c46)OCO5)c1O (as salt: chloride) [13m, 1,2-Methylenedioxy-8-hydroxy-9-methoxy-13-o-cyanbenzylcycloberberine chloride]
213 to 215 °C	COc1ccc2c(c[n+]3ccc4cc5c(c6c(C(C)c7ccccc7)cc2c3c46)OCO5)c1O (stereo not drawn) (as salt: chloride) [13s, 1,2-Methylenedioxy-8-hydroxy-9-methoxy-13-1′-phenylethylcycloberberine chloride]
248 to 250 °C	COc1ccc2c(c[n+]3ccc4cc5c(c6c(Cc7ccccc7)cc2c3c46)OCO5)c1O (as salt: chloride) [13a, 1,2-Methylenedioxy-8-hydroxy-9-methoxy-13-benzylcycloberberine chloride]
197 to 199 °C	COc1ccc2c(c[n+]3ccc4cc5c(c6c(Cc7ccc(C#N)cc7)cc2c3c46)OCO5)c1O (as salt: chloride) [13o, 1,2-Methylenedioxy-8-hydroxy-9-dimethoxy-13-p-cyanbenzylcycloberberine chloride]
203 to 205 °C	COc1ccc2c(c[n+]3ccc4cc5c(c6c(Cc7ccccc7C)cc2c3c46)OCO5)c1O (as salt: chloride) [13g, 1,2-Methylenedioxy-8-hydroxy-9-methoxy-13-o-methylbenzylcycloberberine chloride]
199 to 201 °C	COc1ccc2c(c[n+]3ccc4cc5c(c6c(Cc7ccc(Cl)cc7)cc2c3c46)OCO5)c1O (as salt: chloride) [13e, 1,2-Methylenedioxy-8-hydroxy-9-methoxy-13-p-chlorobenzylcycloberberine chloride]
